Laboratory results as given in ChEMBL document CHEMBL3507680, “University of Dundee, Gates Library screen for HepG2 cell viability”.

test: Human HepG2 cell viability assay in 384 well format; assay type: toxicity, cell-based; set-up: dose 125 nL, time 70.5 hour; concentration not given beside the values; conditions: HepG2 cells, read-out: Inhibition

SMILES	cytotoxicity at 70.5 h [%]
c1cncc(O[C@H]2COCCN(Cc3c[nH]c4ccccc34)C2)c1	4.1
CC(C)CN1C[C@@H]2C(=O)NC3(CCN(C(=O)c4cccnc4)CC3)[C@@H]2C1	-9.79
O=c1[nH]nc2c(N3CCCCCC3)nccn12	-8.09
CCCS(=O)(=O)N1C[C@H]2C[C@H](C(=O)Nc3cccnc3)[C@@H](C1)O2	-4.17
Cc1nc(C)n(CC2CCCCN2CC(=O)Nc2cc(C)on2)n1 (centres undefined)	-13.4
CN1C(=O)C2(CCNCC2)c2cc(F)ccc21	-4.69
CCNc1ncc(C(=O)NC(CC)c2ccnn2C)cn1 (centres undefined)	-5.36
CCc1noc(CS(=O)(=O)Cc2ccccc2Cl)n1	-6.3
CCc1ncnc2c1CCN(Cc1cccs1)CC2	-7.19
COc1cc(CCC(=O)NC2CC2)ccc1OCC(F)(F)F	-15.3
CCN1C(=O)C(c2ccccc2)CC12CCN(CCO)CC2 (centres undefined)	-13.9
Cc1ncc(C(=O)N2C[C@H](CO)C[C@H](CN3CCOCC3)C2)c(=O)[nH]1	3.07
Cc1ccc(NC2CCN(C(=O)CCc3nccs3)CC2)nn1	-12.3
O=C([C@H]1CN(Cc2ccc(F)cc2)C[C@H]2OCC[C@@H]12)N1CCCO1	-7.77
CCC(Nc1cccc(OC)c1)C(=O)NCc1ccc2c(c1)OCO2 (centres undefined)	-8.45
Cc1cc(CN2CCC(CNC(=O)c3ccc(C#N)cc3)C2)[nH]n1 (centres undefined)	-0.514
CCS(=O)(=O)N1CCC2(CC1)CN(c1ccsc1)C(=O)CO2	-11.6
N#Cc1cccc(C(=O)N2CCN(c3ncccn3)CC2)c1	14.3
CN(C)C(=O)c1ccc(NCCNc2ccc3ccccc3n2)nc1	45.4
NCC1CN(c2nc(-c3ccccc3)nc3c2CCNCC3)CCO1 (centres undefined)	3.02
CC1=C[C@@H](CN2CCN(C)CC2)[C@H](C(C)C)C[C@H]1Cc1nnc(C)o1	-9.92
Cc1ccc(S(=O)(=O)N2CCC3(CC(C(=O)NCC(C)C)=NO3)C2)cc1 (centres undefined)	7.95

SMILES	cytotoxicity at 70.5 h [%]
Cc1c(CC(=O)N2CCSCC2)nnn1-c1cccc(Cl)c1	23.4
O=C1C(NCc2nnc3n2CCCC3)CCN1c1ccccc1 (centres undefined)	-5.59
Cc1nc(C)c2c(n1)CCN(C(=O)CC1CC1)CC2	-6.2
Cn1cccc1C(=O)N1CC[C@@]2(O)CCN(S(C)(=O)=O)C[C@H]2C1	-6.36
CCOc1cc(F)ccc1NS(=O)(=O)c1cc(C)c(C(=O)O)s1	-8.13
O=C(CCSc1ccccc1)NS(=O)(=O)c1ccc2c(c1)OCCO2	-6.91
CO[C@@H]1c2ccccc2C2(CCN(C(=O)CNS(C)(=O)=O)CC2)[C@H]1O	23.4
Cc1cc(C)n(-c2ccc(CNCc3ccc(C)o3)cn2)n1	-7.08
CC(=O)Nc1c(C)noc1/C=C\c1ccc(C)c(S(=O)(=O)NC2CC2)c1	-6.84
Cc1nc(NC2CC(C)(C)NC(C)(C)C2)c2c(n1)c(C)nn2C	-18.4
CCn1cc(CN2CCC(NS(C)(=O)=O)CC2)cc1C#N	-3.22
CC(C)CC1(C(=O)NCCc2nncn2C2CC2)CCC1	-3.78
COc1ccc(C)cc1C(C)NCc1cccn1C (centres undefined)	-0.611
CN(C)C(=O)C1CCN(c2cncc(-n3cccn3)n2)CC1	10.2
CN(CC(N)=O)S(=O)(=O)c1ccc(F)cc1Cl	-11.4
CC1CN(C)c2ccccc2CN1C(=O)c1cnsn1 (centres undefined)	-0.187
Cn1ncc(N2CCC(CNC(=O)[C@@H](N)c3ccccc3)CC2)cc1=O	-4.64
CCOc1ccc(C(=O)Nc2c(C)nc3scc(C)n3c2=O)cc1	-0.312
O=C(c1cn(Cc2ccc(Cl)cc2)nn1)N1CCCO1	-10.9
CCC1=N[C@@]2(CC[C@@H]3CN(CC)C[C@@H]32)C(=O)N1C	7.11
CC(=O)NCCNC(=O)c1cc(COc2ccccc2)[nH]n1	1.84
CC(C)Nc1nc2c(c(NC3CC3)n1)CN(C(=O)Cc1ccsc1)CC2	3.26
